In patent US6521446B2, “Biosensor” (Duke University, priority 1997, dated 2003):
pKd: −log10 of the molar value.

Key:
[1] = Glucose binding, titration followed by fluorescence change of the conjugated fluorophore
Method: (§1) Measurement of Glucose and Galactose Binding. Sugar binding was determined by measuring changes in fluorescence of the conjugated fluorophores on a SLM-Aminco-Bowman series-2 fluorimeter at 25±1° C. Glucose or galactose (Sigma) was titrated into a 50 nM conjugated protein solution in 0.1 M NaCl, 50 mM phosphate (pH 7.0), which was continuously mixed with a magnetic stirrer. For titrations, the excitation and emission slit widths were set to 4 and 16 nm, respectively (IANBD:λex=469 nm, λcm=540 nm; acrylodan: λex=392 nm, λem=520 nm). Under these conditions the instrument noise was <1% of the fluorescence signal observed in saturating solutions of glucose. Experimentally observed binding curves were fit to a binding isotherm:
(§2) where ΔF is the change in fluorescence, ΔFmax the fluorescence change at saturating concentrations of ligand, Kd the binding constant, and S the concentration of ligand.

[2] = Sugar binding Kd of mutant proteins: D-Mannose; details: Table 2, binding-site mutants
Method: as §1, with “Glucose or galactose (Sigma) was titrated into a 50 nM conjugated protein solution in 0.1 M NaCl, 50 mM phosphate (pH 7.0), which was continuously mixed with a magnetic stirrer.” left out
as §2
(§3) (Primary binding surface in E. coli GBP: Asn14, Asn91, His152, Asp154, Arg158, Asn211, Asp236, Asn256; secondary binding surface in E coli GBP: Tyr10, Phe16, Met17, Asn66, Ser112, Ser115, Trp183, Asn210, Met214, Gln261, Tyr295). In order to change the binding constant for glucose, residues in both surfaces have been systematically mutated, either singly or in pairs. The Asp154Ala, Trp183Ala (D154A+W183A) double mutant has a binding constant of 7.2 mM. The dynamic range is thus matched for operating in physiologically relevant glucose concentration ranges.

[3] = Sugar binding Kd of mutant proteins: L-Arabinose; details: Table 2, binding-site mutants
Method: as §1, with “Glucose or galactose (Sigma) was titrated into a 50 nM conjugated protein solution in 0.1 M NaCl, 50 mM phosphate (pH 7.0), which was continuously mixed with a magnetic stirrer.” left out
as §2, §3

[4] = Galactose binding, titration followed by fluorescence change of the conjugated fluorophore
Method: as §1, §2

[5] = Sugar binding Kd of mutant proteins: D-Fructose; details: Table 2, binding-site mutants
Method: as §1, with “Glucose or galactose (Sigma) was titrated into a 50 nM conjugated protein solution in 0.1 M NaCl, 50 mM phosphate (pH 7.0), which was continuously mixed with a magnetic stirrer.” left out
as §2, §3

[6] = Sugar binding Kd of mutant proteins: D-Fucose; details: Table 2, binding-site mutants
Method: as §1, with “Glucose or galactose (Sigma) was titrated into a 50 nM conjugated protein solution in 0.1 M NaCl, 50 mM phosphate (pH 7.0), which was continuously mixed with a magnetic stirrer.” left out
as §2, §3

[7] = Fluorescence of glucose-saturated GBP conjugate relative to apoprotein; assay type: binding
Method: as §1, with “isotherm: […]” for “isotherm:”

[8] = Sugar binding Kd of mutant proteins: D-Xylose; details: Table 2, binding-site mutants
Method: as §1, with “Glucose or galactose (Sigma) was titrated into a 50 nM conjugated protein solution in 0.1 M NaCl, 50 mM phosphate (pH 7.0), which was continuously mixed with a magnetic stirrer.” left out
as §2, §3

[9] = Sugar binding Kd of mutant proteins: Maltose; details: Table 2, binding-site mutants
Method: as §1, with “Glucose or galactose (Sigma) was titrated into a 50 nM conjugated protein solution in 0.1 M NaCl, 50 mM phosphate (pH 7.0), which was continuously mixed with a magnetic stirrer.” left out
as §2, §3

[10] = Sugar binding Kd of mutant proteins: Lactose; details: Table 2, binding-site mutants
Method: as §1, with “Glucose or galactose (Sigma) was titrated into a 50 nM conjugated protein solution in 0.1 M NaCl, 50 mM phosphate (pH 7.0), which was continuously mixed with a magnetic stirrer.” left out
as §2, §3

[11] = Table 2, binding-site mutants, read-out: Kd, D-Glucose
[12] = Table 2, binding-site mutants, read-out: Kd, D-Galactose
[13] = mutants in the allosterically signaling construct 255C, read-out: binding constant for glucose
[14] = IANBD conjugate, read-out: Kd(Glc)
[15] = acrylodan conjugate, read-out: Kd(Glc)
[16] = IANBD conjugate, read-out: Kd(Gal)
[17] = acrylodan conjugate, read-out: Kd(Gal)
[18] = IANBD conjugate, relative to wild-type

Row | Substance | pKd [1, 11] | pKd [2] | pKd [3] | pKd [4, 12] | R: ratio of fluorescence of fully saturated GBP (10 mM glucose) to apoprotein ([7]; IANBD conjugate) | R: ratio of fluorescence of fully saturated GBP (10 mM glucose) to apoprotein ([7]; acrylodan conjugate) | further results
1 | D154A: E. coli GBP binding-site mutant | 4.94 | 2.81 | 2.66 | 4.39 |  |  | pKd [5]: 1.62; pKd [6]: 3.85
2 | F16Y: E. coli GBP binding-site mutant | 3.30 |  |  | 2.93 |  |  | pKd [6]: 2.22
3 | W183AY10A: GBP double mutant constructed in the allosterically signaling construct 255C |  |  |  |  |  |  | pKd [1, 13]: 3.19
4 | Y10A D154A: E. coli GBP binding-site double mutant | 2.98 |  |  | 2.36 |  |  | 
5 | D257C: E. coli GBP single cysteine mutant in the hinge region, fluorophore conjugated |  |  |  |  | 1.6 | 0.8 | pKd [1, 14]: 6.10; pKd [1, 15]: 6.30; pKd [4, 16]: 5.82; pKd [4, 17]: 6.30
6 | P294C: E. coli GBP single cysteine mutant in the hinge region, fluorophore conjugated |  |  |  |  | 1.0 | 0.9 | pKd [1, 15]: 6.00; pKd [4, 17]: 6.00
7 | V296C: E. coli GBP single cysteine mutant in the hinge region, fluorophore conjugated |  |  |  |  | 0.7 | 1.0 | pKd [1, 14]: 7.00; pKd [4, 16]: 6.52
8 | S112A: E. coli GBP binding-site mutant | 5.14 | 3.17 | 3.06 | 4.61 |  |  | pKd [8]: 2.38; pKd [5]: 1.82
9 | N91A: E. coli GBP binding-site mutant | 3.82 | 1.80 |  | 2.97 |  |  | pKd [6]: 2.91
10 | acrylodan conjugate at position 255: acrylodan conjugate of the L255C GBP mutant, best allosteric signal transducer in the hinge region |  |  |  |  |  |  | decrease in fluorescence upon ligand binding ([7]; acrylodan conjugate): 2 fold
11 | S112A S115A: E. coli GBP binding-site double mutant | 5.05 | 2.85 | 2.96 | 4.48 |  |  | pKd [9]: 2.48
12 | D14A: E. coli GBP binding-site mutant at position 14 | 3.54 | 1.59 | 2.14 | 3.41 |  |  | 
13 | W183A: GBP single mutant constructed in the allosterically signaling construct 255C |  |  |  |  |  |  | pKd [1, 13]: 4.70
14 | H152C: E. coli GBP single cysteine mutant in the binding pocket, nonallosteric reporter site, conjugated to IANBD or acrylodan |  |  |  |  | 4.0 | 1.0 | increase in the binding constant for glucose [1, 18]: ~100 fold; pKd [1, 14]: 4.70; increase in fluorescence ([7]; IANBD conjugate): 4 fold; increase in the binding constant for galactose [4, 18]: ~500 fold; pKd [4, 16]: 3.80
15 | N15C: E. coli GBP single cysteine mutant in the binding pocket, nonallosteric reporter site, conjugated to IANBD or acrylodan |  |  |  |  | 0.8 | 0.7 | pKd [1, 14]: 6.89; effect on the sugar binding constants ([1]; acrylodan and IANBD conjugates at the 15 position): do not greatly perturb the sugar binding constants; pKd [1, 15]: 6.77; pKd [4, 16]: 7.00; pKd [4, 17]: 6.82
16 | L255C: E. coli GBP single cysteine mutant in the hinge region of the allosteric flap; allosterically signaling construct 255C |  |  |  |  | 0.8 | 0.5 | pKd [1, 14]: 6.49; pKd [1, 15]: 6.37; pKd [1, 13]: 6.70; pKd [4, 16]: 6.31; pKd [4, 17]: 6.21
17 | Wild-type: wild type E. coli Glucose/Galactose Binding Protein (GBP) [reference compound] |  | 3.98 | 4.05 | 5.62 |  |  | pKd ([1]; wild type GBP, read-out: Kd (glucose)): 6.10; pKd [9]: 3.40; pKd [8]: 2.85; pKd [10]: 2.89; pKd [5]: 2.33; pKd [6]: 3.47
18 | D154A W183A: E. coli GBP double mutant in a 255C background | 2.14 |  |  |  |  |  | pKd ([1]; 255C background, read-out: binding constant): 2.14; pKd ([1]; glucose, read-out: binding constant): 2.14
19 | Y10A: E. coli GBP binding-site mutant, constructed in the 255C construct | 4.27 | 2.15 | 2.57 | 3.74 |  |  | pKd [1, 13]: 4.30; pKd [5]: 1.66
